{
  "source": "paper PMC10429771",
  "about": "“Bioorthogonal activation of prodrugs, for the potential treatment of breast cancer, using the Staudinger reaction” (RSC Medicinal Chemistry, 2023)",
  "key": {"MCF-7 cells [1]": {"tested_on": "MCF-7 cells", "assay": "MTT assay, prodrug activation and anticancer activity in MCF-7 cells", "type": "cell-based, human", "details": "for IC50: Homo sapiens, MTT, mean ± SEM (n = 3)", "protocol": "(§1) The in vitro prodrug activation and anticancer activity of compounds 10 and 12 was determined using the MTT assay. MCF-7 cells or L929 cells were incubated with 50 μM Ac4ManNAz-, 4-, and 5-containing RPMI medium or 50 μM Ac4ManNAz-, 4-, and 5-containing DMEM medium, respectively for 72 h at 37 °C CO2 incubator as described above. Then, the engineered and non-engineered MCF-7 cells or L929 cells were seeded on 96-well plates (4 × 10^4 cells per mL) or (1 × 10^5 cells per mL), respectively and incubated at 37 °C for 24 h. Cells were then treated with a range of concentration of both prodrugs 10 and 12 (0.001–10 μM) and incubated for 72 h. After incubation, the treatments-containing medium was removed and 20 μL of 0.5 mg mL^−1 MTT in PBS solution was added in each well for 4 h. The resulting formazan crystals were dissolved in 100 μL of DMSO after carefully removing the MTT solution. The absorbance was recorded at 570 nm by InfiniteF50 TECAN microplate reader. The cells without any treatment were used as the control. Assays were performed in three replicates, which the statistical mean and standard deviation were used to estimate the cell viability. IC50 (inhibitory concentration to induce 50% cell death) values were determined using GraphPad Prism 8.0.2 according to the fitted data."}, "L929 cells [2]": {"tested_on": "L929 cells", "assay": "MTT assay, prodrug activation and cytotoxicity in L929 cells", "type": "cell-based, mouse", "details": "for prodrug activation on L929 cells: L929 cells pre-treated with azido-sialic acid derivatives 4 and 5, 50 μM; for IC50: Mus musculus, MTT, mean ± SEM (n = 3); for IC50 on L929 cells relative to MCF-7 cells: non-engineered cells, L929 IC50 higher than MCF-7 IC50", "protocol": "as §1"}, "L929 cells [3]": {"tested_on": "L929 cells", "assay": "Azide-reporter generation by Western blotting, L929", "type": "cell-based, mouse", "details": "50 μM, 72 h; lysates reacted with phosphine-PEG3-biotin", "protocol": "(§2) For azide generation analysis in breast cancer cells and mouse fibroblasts, MCF-7 cells were cultured in 5% fetal bovine serum and RPMI 1640 medium and L929 cells were cultured in 10% fetal bovine serum and DMEM medium at 37 °C in a 5% CO2 incubator.\nTo analyse the engineered azide groups in glycoproteins in vitro, 4 × 10^4 cell per mL of MCF-7 and 1 × 10^4 cell per mL of L929 cells were seeded into 6-well plates and incubated with 50 μM Ac4ManNAz-, 4-, and 5-containing medium for 72 h at 37 °C CO2 incubator, respectively. Cells were then washed twice with ice cold PBS and lysed using ice cold RIPA buffer (Thermo Fisher Scientific, UK) with 1% protease inhibitor cocktail. Lysates were centrifuged at 12 000 rpm for 10 min at 4 °C to remove cell debris. The total protein of each sample was quantified by DC assay (Bio-rad DC Protein Assay Kit, Bio-rad, UK). The lysates were then incubated with 0.5 μM phosphine-PEG3-biotin (Thermo Fisher Scientific, UK) for 12 h at room temperature. The proteins from each sample were mixed with 1× sodium dodecyl sulfate (SDS) gel-loading buffer (125 mol L^−1 Tris, pH 6.8, 5% glycerol, 2% SDS, 1% β-mercaptoethanol, and 0.006% bromophenol blue) and boiled for 5 min. Then, 20 μg of proteins was separated by 8% SDS – polyacrylamide gel electrophoresis and transferred onto PVDF membranes. The membranes were blocked for 1.5 h at room temperature in 0.5% bovine serum albumin (BSA) containing 1× TBST solution (10 mol L^−1 Tris, pH 7.4, 100 mol L^−1 NaCl, and 0.1% Tween 20). Then, the membranes were incubated with streptavidin-HRP (Cell Signalling Technology, UK) containing 1× TBST solution for overnight at 4 °C. Next day, the membranes were washed three times using 1× TBST and protein band was detected with an ECL system."}, "[4]": {"assay": "Cell viability of L929 cells after azide-modified sugars (MTT)", "type": "cell-based", "details": "mouse, L929 fibroblast cells, 50 μM sugar, no change compared to control"}, "MCF-7 cells [5]": {"tested_on": "MCF-7 cells", "assay": "Azide-reporter generation by confocal microscopy (DBCO-Cy5 MFI), MCF-7", "type": "cell-based, human", "details": "breast cancer MCF-7 versus normal fibroblast L929", "protocol": "as §2\n(§3) For fluorescence quantification, 4 × 10^4 cell per mL of MCF-7 and 1 × 10^4 cell per mL of L929 cells were seeded into a 35 mm covered glass-bottom dishes and incubated with 50 μM Ac4ManNAz-, 4-, and 5-containing medium for 72 h at 37 °C CO2 incubator, respectively. Then to visualize the azide groups, the sugar-containing medium was removed and the cells were washed twice with PBS and further incubated with 20 μM dibenzylcyclooctyne-conjugated Cy5 (DBCO-Cy5)-containing fresh medium for 1 h at 37 °C. Then, the cells were washed twice with PBS and fixed with formaldehyde fixative for 10 min in dark conditions. After fixation, the cells were washed twice with PBS and mounted with 4,6-diamidino-2-phenylindole (DAPI) (5 μg mL^−1). The cells were observed using a confocal laser microscope (Nikon A1R Confocal with 405, 445, 488, 514, 561 and 640 nm lasers). The mean fluorescence intensity was analyzed using ImageJ software and the data were represented as absolute values."}, "L929 cells [6]": {"tested_on": "L929 cells", "assay": "Azide-reporter generation by confocal microscopy (DBCO-Cy5 MFI), L929", "type": "cell-based, mouse", "details": "50 μM, 72 h; DBCO-Cy5 20 μM 1 h", "protocol": "as §2, §3"}, "[7]": {"details": "MCF7, 4-engineered MCF-7 cells (50 μM 4, 72 h pre-treatment)"}, "[8]": {"details": "MCF7, 5-engineered MCF-7 cells (50 μM 5, 72 h pre-treatment)"}, "[9]": {"details": "MCF7, 72 h, non-engineered MCF-7 cells, 72 h"}, "[10]": {"details": "MCF7, Ac4ManNAz-engineered MCF-7 cells (50 μM, 72 h pre-treatment)"}, "[11]": {"details": "L929, 4-engineered L929 cells (50 μM 4, 72 h pre-treatment)"}, "[12]": {"details": "L929, 5-engineered L929 cells (50 μM 5, 72 h pre-treatment)"}, "[13]": {"details": "L929, 72 h, non-engineered L929 cells, 72 h"}, "[14]": {"details": "L929, Ac4ManNAz-engineered L929 cells (50 μM, 72 h pre-treatment)"}},
  "data": [
    {"compound": "O=C(Nc1ccc(N(CCCl)CCCl)cc1)c1ccccc1P(c1ccccc1)c1ccccc1", "note": "[N-mustard prodrug 10, N-(4-(Bis(2-chloroethyl)amino)phenyl)-2-(diphenylphosphaneyl)benzamide]", "values": [
      {"measurement": "IC50", "setting": "MCF-7 cells [1]; [7]", "value": "2.1 ± 1.11", "unit": "µM"},
      {"measurement": "IC50", "setting": "MCF-7 cells [1]; [8]", "value": "9.3 ± 0.63", "unit": "µM"},
      {"measurement": "IC50", "setting": "MCF-7 cells [1]; [9]", "value": "20.8 ± 1.27", "unit": "µM"},
      {"measurement": "IC50", "setting": "MCF-7 cells [1]; [10]", "value": "0.6 ± 0.08", "unit": "µM"},
      {"measurement": "prodrug activation on L929 cells", "setting": "L929 cells [2]", "value": "No activation"},
      {"measurement": "IC50", "setting": "L929 cells [2]; [11]", "value": "29.9 ± 0.69", "unit": "µM"},
      {"measurement": "IC50", "setting": "L929 cells [2]; [12]", "value": "29.7 ± 1.2", "unit": "µM"},
      {"measurement": "IC50", "setting": "L929 cells [2]; [13]", "value": "31.4 ± 0.44", "unit": "µM"},
      {"measurement": "IC50", "setting": "L929 cells [2]; [14]", "value": "21.1 ± 0.58", "unit": "µM"},
      {"measurement": "IC50 on L929 cells relative to MCF-7 cells", "setting": "L929 cells [2]", "value": "approximately 2 fold"}
    ]},
    {"compound": "CC(=O)OC[C@H]1OC(OC(C)=O)[C@@H](NC(=O)CN=[N+]=[N-])[C@@H](OC(C)=O)[C@@H]1OC(C)=O", "note": "(stereo partly drawn) [Ac4ManNAz, Tetra-O-acetyl azidomannosamine, reference compound]", "values": [
      {"measurement": "azide incorporation in L929 cells (Western blotting)", "setting": "L929 cells [3]", "value": "caused the azide incorporation"},
      {"measurement": "viability at 50 µM", "setting": "[4]", "value": "97.5 ± 5.2", "unit": "%"}
    ]},
    {"compound": "CC(=O)N[C@H]1[C@H]([C@H](O)[C@H](O)CN=[N+]=[N-])OC(O)(C(=O)O)C[C@@H]1O", "note": "(stereo in doubt) [Compound 4, 9-Azido-5-acetamido-3,5,9-trideoxy-β-D-glycero-D-galacto-2-nonulosonic acid]", "values": [
      {"measurement": "azide incorporation in L929 cells (Western blotting)", "setting": "L929 cells [3]", "value": "did not show any azide-reporter generation"},
      {"measurement": "higher azide expression on MCF-7 cells versus L929 cells", "setting": "MCF-7 cells [5]", "value": "~17", "unit": "fold"},
      {"measurement": "viability at 50 µM", "setting": "[4]", "value": "92.4 ± 1.6", "unit": "%"},
      {"measurement": "fluorescence in L929 cells (confocal)", "setting": "L929 cells [6]", "value": "did not show any fluorescence"}
    ]},
    {"compound": "CC(=O)N[C@H]1[C@H]([C@H](OC(C)=O)[C@@H](CN=[N+]=[N-])OC(C)=O)O[C@@](OC(C)=O)(C(=O)O)C[C@@H]1OC(C)=O", "note": "[Compound 5, 9-Azido-5-acetamido-2,4,7,8-tetracetyl-3,5,9-trideoxy-β-D-glycero-D-galacto-2-nonulosonic acid]", "values": [
      {"measurement": "azide incorporation in L929 cells (Western blotting)", "setting": "L929 cells [3]", "value": "did not show any azide-reporter generation"},
      {"measurement": "higher azide expression on MCF-7 cells versus L929 cells", "setting": "MCF-7 cells [5]", "value": "~17", "unit": "fold"},
      {"measurement": "viability at 50 µM", "setting": "[4]", "value": "122 ± 5.5", "unit": "%"},
      {"measurement": "fluorescence in L929 cells (confocal)", "setting": "L929 cells [6]", "value": "did not show any fluorescence"}
    ]},
    {"compound": "COc1cccc2c1C(=O)c1c(O)c3c(c(O)c1C2=O)C[C@@](O)(C(=O)CO)C[C@@H]3O[C@H]1C[C@H](N)[C@H](O)[C@H](C)O1", "note": "[Doxorubicin 11, doxorubicin, reference compound]", "values": [
      {"measurement": "IC50", "setting": "MCF-7 cells [1]; [9]", "value": "0.2 ± 0.03", "unit": "µM"},
      {"measurement": "IC50", "setting": "L929 cells [2]; [13]", "value": "2.04 ± 0.009", "unit": "µM"}
    ]},
    {"compound": "COc1cccc2c1C(=O)c1c(O)c3c(c(O)c1C2=O)C[C@@](O)(C(=O)CO)C[C@@H]3OC1C[C@@H](NC(=O)c2ccccc2P(c2ccccc2)c2ccccc2)[C@@H](O)[C@@H](C)O1", "note": "(stereo partly drawn) [Dox-prodrug 12, 2-(Diphenylphosphino)-N-((2R,3R,4R)-3-hydroxy-2-methyl-6-(((1S,3S)-3,5,12-trihydroxy-3-(2-hydroxyacetyl)-10-methoxy-6,11-dioxo-1,2,3,4,6,11-hexahydrotetracen-1-yl)oxy)tetrahydro-2H-pyran-4-yl)benzamide]", "values": [
      {"measurement": "IC50", "setting": "MCF-7 cells [1]; [7]", "value": "0.5 ± 0.03", "unit": "µM"},
      {"measurement": "IC50", "setting": "MCF-7 cells [1]; [8]", "value": "1.6 ± 0.09", "unit": "µM"},
      {"measurement": "IC50", "setting": "MCF-7 cells [1]; [9]", "value": "4.6 ± 0.19", "unit": "µM"},
      {"measurement": "IC50", "setting": "MCF-7 cells [1]; [10]", "value": "0.2 ± 0.01", "unit": "µM"},
      {"measurement": "decrease in potency of prodrug versus doxorubicin", "setting": "MCF-7 cells [1]; non-engineered MCF-7 cells, IC50 of prodrug 12 vs doxorubicin 11", "value": "more than 20 fold"},
      {"measurement": "prodrug activation on L929 cells", "setting": "L929 cells [2]", "value": "No activation"},
      {"measurement": "IC50", "setting": "L929 cells [2]; [11]", "value": "11.2 ± 1.04", "unit": "µM"},
      {"measurement": "IC50", "setting": "L929 cells [2]; [12]", "value": "10.7 ± 0.22", "unit": "µM"},
      {"measurement": "IC50", "setting": "L929 cells [2]; [13]", "value": "11.3 ± 0.23", "unit": "µM"},
      {"measurement": "IC50", "setting": "L929 cells [2]; [14]", "value": "7.7 ± 0.26", "unit": "µM"},
      {"measurement": "IC50 on L929 cells relative to MCF-7 cells", "setting": "L929 cells [2]", "value": "approximately 2 fold"}
    ]}
  ]
}
